The target in data set [1] is T1, DOR (Homo sapiens, UniProt P41143). Put plainly: Radioligand binding assay, displacement of [3H]DPDPE from CHO cell membranes. More on the design: host or cells: CHO cells, stably transfected; membranes. As to conditions: for activity / affinity for DOR, in words: in vitro; for Ki: [3H]DPDPE, CHO membranes, read-out: Ki (±SEM) DOR.
Data set [2] has as its target T2, KOR (Homo sapiens, UniProt P41145). Nature of the data set: Radioligand binding assay, displacement of [3H]U69593 from CHO cells. Also on record: host or cells: CHO cells, stably transfected; membranes. As to conditions: for inhibition at 1 µM: displacement of [3H]U69593 at 1.0 μM. A general note: In a radioligand displacement assay an active substance lowers the binding of a labelled ligand.

For data set [3], the target named is T3, human MOR (Homo sapiens, UniProt P35372). Nature of the data set: Radioligand binding assay, displacement of [3H]DAMGO from CHO cell membranes.
T3 sequence (P35372 whole entry): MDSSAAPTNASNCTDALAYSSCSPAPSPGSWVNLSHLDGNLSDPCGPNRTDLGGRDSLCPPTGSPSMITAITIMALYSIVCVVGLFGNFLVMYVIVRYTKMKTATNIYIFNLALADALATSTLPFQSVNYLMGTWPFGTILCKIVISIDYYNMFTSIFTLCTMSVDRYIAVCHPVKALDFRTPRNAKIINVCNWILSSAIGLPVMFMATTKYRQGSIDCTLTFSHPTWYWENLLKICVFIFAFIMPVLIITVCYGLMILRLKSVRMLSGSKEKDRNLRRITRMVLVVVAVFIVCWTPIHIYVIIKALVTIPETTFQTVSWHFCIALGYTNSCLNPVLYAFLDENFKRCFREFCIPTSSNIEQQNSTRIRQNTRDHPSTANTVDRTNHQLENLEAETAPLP
The target of data set [4] is T1, DOR. Also on record: expressed in transfected cells; method as in PMID 27096047. As to conditions: stimulation of [35S]GTPγS binding; NA = no activity; cited from earlier work. A general note: GTPγS resists hydrolysis and so accumulates on activated G proteins.
The target in data set [5] is T3, human MOR. More on the design: method as in PMID 27096047. The following applies: cited from earlier work.
Data set [6] has as its target T2, KOR. More on the design: host or cells: CHO cells, stably transfected; membranes; method as in PMID 27096047. As to conditions: cited from earlier work; for Ki: read-out: Ki (±SEM) KOR.
In data set [7] the target is T1, DOR. More on the design: host or cells: CHO cells, stably transfected; membranes; method as in PMID 27096047.
Data set [8] concerns the target T3, human MOR. Nature of the data set: [35S]GTP-γ-S functional assay, CHO cell membranes. It is filed as biochemical. The following applies: stimulation of [35S]GTPγS binding; NA = no activity. Here is the method: In a final volume of 0.5 mL, various concentrations of each tested compound were incubated with […] (μ) of CHO cell membranes that stably expressed the human MOR. The assay buffer consisted of 50 mM Tris-HCl, pH 7.4, 3 mM MgCl2, 0.2 mM EGTA, […] and 100 mM NaCl. The final concentration of [^35S]GTP-γ-S was 0.08 nM. Nonspecific binding was measured by the inclusion of […] GTP-γ-S. Binding was initiated by the addition of the membranes. After an incubation period of 60 min at 30 °C, the reactions were terminated by rapid filtration, and the radioactivity was determined by liquid scintillation counting.

For data set [9], the target named is T2, KOR. More on the design: expressed in transfected cells; method as in PMID 27096047. As to conditions: stimulation of [35S]GTPγS binding; NA = no activity; cited from earlier work.

Each structure is given as a SMILES string. “And” between values parts separate entries of the source, which are not always exact repeats. Equal entries are not always repeated. Where two headings read alike, the source gives them in different places.

For orientation: inhibition means the percentage by which the read-out fell short of the control. Low values mean a weak effect, high ones a strong effect. The Ki is a measure of affinity in units of concentration, obtained from inhibition or displacement. Usually melting point stands for the temperature of the solid-liquid transition. As usually defined, the EC50 is the midpoint of the concentration-response curve. By Emax is commonly meant the size of the effect at its maximum, as opposed to the concentration needed.

T1 sequence (P41143 whole entry): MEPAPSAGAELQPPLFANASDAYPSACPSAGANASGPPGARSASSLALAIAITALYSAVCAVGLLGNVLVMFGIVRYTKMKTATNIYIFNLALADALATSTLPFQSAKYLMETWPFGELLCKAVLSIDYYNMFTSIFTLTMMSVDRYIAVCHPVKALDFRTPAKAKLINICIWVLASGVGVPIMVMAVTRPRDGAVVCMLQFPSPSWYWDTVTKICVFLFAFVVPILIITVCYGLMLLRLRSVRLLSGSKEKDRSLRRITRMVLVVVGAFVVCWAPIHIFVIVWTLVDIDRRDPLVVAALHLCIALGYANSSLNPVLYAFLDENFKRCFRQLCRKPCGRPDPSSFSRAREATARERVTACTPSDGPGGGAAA
T2 sequence (P41145 whole entry): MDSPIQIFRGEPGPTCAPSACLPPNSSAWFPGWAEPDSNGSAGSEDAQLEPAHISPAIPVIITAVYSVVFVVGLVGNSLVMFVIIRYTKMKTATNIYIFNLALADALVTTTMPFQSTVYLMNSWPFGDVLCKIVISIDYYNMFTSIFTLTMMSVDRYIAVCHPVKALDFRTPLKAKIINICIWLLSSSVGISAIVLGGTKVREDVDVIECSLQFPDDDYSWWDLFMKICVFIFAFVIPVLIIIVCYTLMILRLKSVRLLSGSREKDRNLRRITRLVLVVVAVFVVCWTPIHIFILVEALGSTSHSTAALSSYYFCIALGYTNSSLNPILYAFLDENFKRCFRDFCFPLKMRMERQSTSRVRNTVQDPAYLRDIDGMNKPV

Take `CN(C)CC1CCc2ccccc2C1(O)c1cccc(O)c1` (stereo not shown) [FW-1]: the values for the inhibition at 1 µM in data set [1] and in [2] were 21.7 ± 2.9% and 56.3 ± 4.9%, respectively. In data set [1], the “activity / affinity for DOR, in words” value was “not be active”. Further, the “activity for KOR, in words” value in data set [2] (in vitro) is recorded as “not be active”. Also, in data set [3] (in vitro), the “activity for MOR, in words” value was “not be active”. Also, the Ki in data set [3] (read-out: Ki (±SEM) MOR) was more than 10000 nM.
`CN(CCc1ccccc1)CC1CCc2cc(-c3ccccc3)ccc2C1(O)c1cccc(O)c1.Cl` (stereo not shown) [FW-DIII-OH-2, 1-(3-hydroxyphenyl)-2-((methyl(phenethyl)amino)methyl)-6-phenyl-1,2,3,4-tetrahydronaphthalen-1-ol hydrochloride] returned a melting point of 202.1 to 204.6 °C. In addition, in data set [1], the Ki is 228 nM and 229 nM; the “activity / affinity for DOR, in words” value is on record as “moderate affinity”. In [2], this molecule gave an inhibition at 1 µM of 13.5 ± 0.1%.
With `COc1ccccc1-c1ccc2c(c1)CCC(CN(C)C)C2(O)c1cccc(O)c1` (stereo not shown) [FW-AII-OH-2], in data set [4], the “DOR Emax%” value is 230 ± 7% and the EC50 is 9.3 ± 0.5 nM. In [5] ([3H]DAMGO, CHO membranes, >10^4 = no binding affinity up to 10^4 nM, read-out: Ki (±SEM) MOR), the Ki is more than 10000 nM. Also, in [6] (displacement of [3H]U69593 at 1.0 μM), the “Inhibition (%) KOR” value is on record as 17.7 ± 0.1%. For the same molecule, the Ki in data set [7] ([3H]DPDPE, CHO membranes; >10^4 = no binding affinity up to 10^4 nM; read-out: Ki (±SEM) DOR; cited from earlier work) was 4.64 nM and 4.7 nM.
On to `C[C@@H](NC(=O)[C@@H](N)Cc1ccc(O)cc1)C(=O)NCC(=O)N(C)[C@@H](Cc1ccccc1)C(=O)NCCO` [DAMGO], for which the Emax in [8] was 205 ± 2.05%.
Molecule `CN(C)CC1CCCCC1(O)c1cccc(O)c1` (stereo not shown) [M1, reference compound] gave an Emax in data set [8] of 226 ± 9%. The Ki in data set [6] ([3H]U69593, CHO cells, >10^4 = no binding affinity up to 10^4 nM) is more than 10000 nM; in data set [7] (read-out: Ki (±SEM) DOR; [3H]DPDPE, CHO membranes; >10^4 = no binding affinity up to 10^4 nM; cited from earlier work), more than 10000 nM.
Turning to `COc1ccccc1-c1ccc2c(c1)CCC(CN(C)CCc1ccccc1)C2(O)c1cccc(O)c1.Cl` (stereo not shown) [FW-DI-OH-2, 1-(3-hydroxyphenyl)-6-(2-methoxyphenyl)-2-((methyl(phenethyl)amino)methyl)-1,2,3,4-tetrahydronaphthalen-1-ol hydrochloride], the melting point lay within 200.2 to 202.4 °C. Also, in data set [1], the Ki was 8.7 nM and 8.65 nM; the “activity / affinity for DOR, in words” value is recorded as “high affinitive”. Besides, 1 µM produced 30.1 ± 2.1% inhibition in data set [2].
For `CN(C)CC1CCc2cc(-c3ccccc3)ccc2C1(O)c1cccc(O)c1` (stereo not shown) [FW-AII-OH-1], the “Inhibition (%) MOR” value in data set [5] (displacement of [3H]DAMGO at 1.0 μM) is on record as 20 ± 1.0%. Further, in [9], the EC50 is 580 ± 84 nM and the “KOR Emax%” value was 187 ± 2%. Also, the Ki in data set [6] is 141 nM and 140 nM. In [7] (displacement of [3H]DPDPE at 1.0 μM; cited from earlier work), the “Inhibition (%) DOR” value is listed as 22.0 ± 1.0%.
